Laboratory results published in patent publication US6586592B2, “Bis-arylsulfones” (Pharmacia & Upjohn Company, priority 2000, dated 2003).
Where a name gives a salt, the structure may show the parent alone.

Assays:
[1] = molecular target: T1, cloned human 5-HT6 receptor (Homo sapiens, UniProt P50406); assay: 5-HT6 receptor binding assay ([3H]-LSD radioligand, SPA beads); conditions: membranes of Hela cells containing cloned human 5-HT6 receptor, IC50 converted to Ki by Cheng-Prusoff
T1 construct: membrane preparation
Method: 5-HT6 Receport Binding Assay
Growth of Cells and Membrane Preparation
Harvested intact cells are washed once in cold phosphate-buffered saline. The cells are pelleted and resuspended in 100 ml of cold 50 mM Tris, 5 mM EDTA and 5 mM EGTA, pH 7.4. Homogenization is with a Vir Tishear generator, 4 cycles for 30 seconds each at setting 50. The homogenized cells are centrifuged at 700 RPM (1000×g) for 10 minutes and the supernatant is removed. […] The rehomogenized cells are then centrifuged at 700 RPM (1000×g) for 10 minutes and the supernatant is removed. […] The membrane pellet is resupended in 50-8-ml of assay buffer containing HEPES 20 mM, MgCl2 10 mM, NaCl 150 mM, EDTA 1 mM, pH 7.4 and stored frozen in aliqouts at −70° C.
5-HT6 Receptor Binding Assay
The radioligand binding assay used [^3H]-lysergic acid diethylamide (LSD). The assay is carried out in Wallac 96-well sample plates by the addition of 11 μl of the test sample at the appropriate dilution (the assay employed 11 serial concentrations of samples run in duplicate), 11 μl of radioligand, and 178 μl of a washed mixture of WGA-coated SPA beads and membranes in binding buffer. The plates are shaken for about 5 minutes and then incubated at room temperature for 1 hour. The plates are then loaded into counting cassettes and counted in a Wallac MicroBeta Trilux scintillation counter.
Binding Constant (Ki) Determination
Eleven serial dilutions of test compounds are distributed to assay plates using the PE/Cetus Pro/Pette pipetter. These dilutions were, followed by radioligand and the bead-membrane mixture prepared as described above. The specifically bound cpm obtained are fit to a one-site binding model using GraphPad Prism ver. 2.0.

T1 sequence (P50406 whole entry): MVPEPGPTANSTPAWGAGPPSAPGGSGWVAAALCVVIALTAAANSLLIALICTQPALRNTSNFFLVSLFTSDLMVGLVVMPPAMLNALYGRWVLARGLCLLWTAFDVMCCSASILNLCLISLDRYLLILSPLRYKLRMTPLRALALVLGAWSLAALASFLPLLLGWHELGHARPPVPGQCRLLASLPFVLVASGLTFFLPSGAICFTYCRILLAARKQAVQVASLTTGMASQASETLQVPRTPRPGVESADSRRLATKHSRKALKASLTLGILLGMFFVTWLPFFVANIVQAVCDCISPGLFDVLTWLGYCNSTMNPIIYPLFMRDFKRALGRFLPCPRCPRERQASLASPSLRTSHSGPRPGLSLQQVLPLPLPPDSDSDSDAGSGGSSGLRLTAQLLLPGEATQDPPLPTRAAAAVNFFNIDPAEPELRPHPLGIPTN

Row | Structure (SMILES) | melting point [°C] | Ki [1] [nM]
1 | Cc1ccc(S(=O)(=O)c2ccc(N3CCN(C)CC3)cc2N)cc1 [Example 6, 2-[(4-methylphenyl)sulfonyl]-5-(4-methyl-1-piperazinyl) Phenylamine] | 148 to 151 | 68
2 | Nc1cc(N2CCNCC2)ccc1S(=O)(=O)c1ccccc1 (as salt: salt) [Example 1, 2-(phenylsulfonyl)-5-(1-piperazinyl)phenylamine] | 165 to 166 | 
3 | CCNc1cc(N2CCNCC2)ccc1S(=O)(=O)c1ccccc1.Cl [Example 13, N-ethyl-2-(phenylsulfonyl)-5-(1-piperazinyl) Phenylamine] | 121 to 123 | 
4 | CN1CCN(c2ccc(S(=O)(=O)c3ccc(F)cc3)c(N)c2)CC1.Cl [Example 4, 2-[(4-fluorophenyl)sulfonyl]-5-(4-methyl-1-piperazinyl) Phenylamine] | 85 to 89 | 32
5 | Nc1cc(N2CCNCC2)ccc1S(=O)(=O)c1ccc(F)cc1 [Example 3, 2-[(4-fluorophenyl)sulfonyl]-5-(1-piperazinyl) Phenylamine] |  | 31
6 | Cc1ccc(S(=O)(=O)c2ccc(N3CCNCC3)cc2N)cc1 [Example 5, 2-[(4-methylphenyl)sulfonyl]-5-(1-piperazinyl) Phenylamine] | 102 to 106 | 23
7 | Nc1cc(N2CCCNCC2)ccc1S(=O)(=O)c1cc(F)cc(F)c1 [Example 11, 5-(1,4-diazepan-1-yl)-2-[(3,5-difluorophenyl)sulfonyl]phenylamine] |  | 11
8 | CN1CCN(c2ccc(S(=O)(=O)c3cccc(F)c3)c(N)c2)CC1.Cl [Example 8, 2-[(3-fluorophenyl)sulfonyl]-5-(4-methyl-1-piperazinyl) Phenylamine] | 89 to 92 | 5.2
9 | Nc1cc(N2CCCNCC2)ccc1S(=O)(=O)c1ccc(F)c(F)c1 [Example 9, 5-(1,4-diazepan-1-yl)-2-[(3,4-difluorophenyl)sulfonyl]phenylamine] |  | 79
10 | Nc1cc(N2CCNCC2)ccc1S(=O)(=O)c1ccccc1 [Example 1, 2-(phenylsulfonyl)-5-(1-piperazinyl)phenylamine] |  | 2.6
11 | Nc1cc(N2CCCNCC2)ccc1S(=O)(=O)c1ccccc1 [Example 10, 5-(1,4-diazepan-1-yl)-2-(phenylsulfonyl) Phenylamine] |  | 11
12 | CNc1cc(N2CCCNCC2)ccc1S(=O)(=O)c1cccc(F)c1.Cl | 153 to 154 | 
13 | Cl.Nc1cc(N2CCCNCC2)ccc1S(=O)(=O)c1cccc(F)c1 [Example 2, 5-(1,4-diazepan-1-yl)-2-[(3-fluorophenyl)sulfonyl]phenylamine] | 106 to 108 | 
14 | CN1CCN(c2ccc(S(=O)(=O)c3ccccc3)c(N)c2)CC1.Cl [Example 7, 5-(4-methyl-1-piperazinyl)-2-(phenylsulfonyl) Phenylamine] | 90 to 93 | 3.6
